One block for each molecule: values may come before it.
Key:
ATAD5 = assay: ATAD5-luc genotoxicity assay (agonist mode); type: cell-based; settings: Homo sapiens, positive control titration on every plate, mean, n=408
From the text: (§1) All cell-based assays were multiplexed with a cell viability assay in the same assay well. Although bla-based assays were multiplexed with a luminescence-based cell viability assay (CellTiter-Glo viability assay, Promega), luc-based assays were multiplexed with a fluorescence-based cell viability assay (Cell Titer-Fluor viability assay, Promega). […] A number of stress response pathway assays, including ATAD5-luc[33], a genotoxicity assay, p53-bla, antioxidant responsive element (ARE-bla)[34] and heat-shock factor response element (HSE-bla) assays, were screened in agonist mode.
(§2) In primary screening, all compounds were tested as three independent runs, with each of the three instances of a compound sample residing in a different location on a different compound plate across replicates. […] Analysis of compound concentration–response data was performed as previously described[5]. […] Compound reproducibility was assessed by calculating the reproducibility of the curve ranks of each compound generated from the triplicate runs[9].

[1] = system: heat-shock factor response element; assay: HSE-bla qHTS assay (agonist mode); type: cell-based, human; settings: positive control titration on every plate, mean, n=408
From the text: as §1, §2

Mitochondria toxicity = settings: read-out: Control AC50, positive control titration on every plate, mean, n=408
[2] = target: T1, peroxisome proliferator-activated receptor gamma (Homo sapiens, UniProt P37231); assay: PPAR-gamma-bla antagonist mode qHTS assay; type: cell-based; settings: positive control titration on every plate, mean, n=408
T1 sequence (P37231 238-505 limits assumed): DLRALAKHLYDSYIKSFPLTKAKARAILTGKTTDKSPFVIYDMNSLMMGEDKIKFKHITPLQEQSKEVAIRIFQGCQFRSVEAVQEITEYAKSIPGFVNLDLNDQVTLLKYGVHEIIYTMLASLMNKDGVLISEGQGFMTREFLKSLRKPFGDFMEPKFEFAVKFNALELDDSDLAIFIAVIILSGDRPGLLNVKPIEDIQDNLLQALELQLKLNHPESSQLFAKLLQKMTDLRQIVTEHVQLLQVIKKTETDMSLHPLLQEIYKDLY
From the text: (§3) The assays were run in different modes (agonist versus antagonist) and/or formats (full length versus partial receptor) as detailed below, totaling 30 assays. […] All cell-based assays were multiplexed with a cell viability assay in the same assay well. Although bla-based assays were multiplexed with a luminescence-based cell viability assay (CellTiter-Glo viability assay, Promega), luc-based assays were multiplexed with a fluorescence-based cell viability assay (Cell Titer-Fluor viability assay, Promega). […]
(§4) In primary screening, all compounds were tested as three independent runs, with each of the three instances of a compound sample residing in a different location on a different compound plate across replicates. […] Briefly, raw plate reads for each titration point were first normalized relative to the positive control compound (agonist mode: 100%; antagonist mode: 0%) and dimethylsulphoxide (DMSO)-only wells (agonist mode: 0%; antagonist mode: -100%) as follows: % Activity=((Vcompound – VDMSO)/(Vpos – VDMSO)) × 100, where Vcompound denotes the compound well values, Vpos denotes the median value of the positive control wells and VDMSO denotes the median values of the DMSO-only wells, and then corrected by applying an in-house pattern correction algorithm using compound-free control plates (that is,, DMSO-only plates) at the beginning and end of the compound plate stack. […]

[3] = target: T2, peroxisome proliferator-activated receptor delta (Homo sapiens, UniProt Q03181); assay: PPAR-delta-bla agonist mode qHTS assay; type: cell-based; settings: positive control titration on every plate, mean, n=408
T2 sequence (Q03181 211-441 limits assumed): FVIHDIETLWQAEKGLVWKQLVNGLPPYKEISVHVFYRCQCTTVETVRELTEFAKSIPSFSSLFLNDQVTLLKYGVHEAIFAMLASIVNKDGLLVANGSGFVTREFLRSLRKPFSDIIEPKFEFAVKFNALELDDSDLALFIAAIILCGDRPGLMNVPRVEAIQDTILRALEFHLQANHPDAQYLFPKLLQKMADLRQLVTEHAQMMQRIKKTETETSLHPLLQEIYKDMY
From the text: as §3, §4

[4] = target: T2, peroxisome proliferator-activated receptor delta; assay: PPAR-delta-bla antagonist mode qHTS assay; type: cell-based; settings: positive control titration on every plate, mean, n=408
From the text: as §3, §4

p53 = assay: P53-bla qHTS assay (agonist mode); type: cell-based; settings: Homo sapiens, positive control titration on every plate, mean, n=408
From the text: as §3, §4

[5] = target: aryl hydrocarbon receptor (Homo sapiens, UniProt P35869); assay: AhR-luc qHTS assay; type: cell-based; settings: positive control titration on every plate, mean, n=408
From the text: as §1, §2

DT40 Rev3 cells = assay: DT40 Rev3 cell viability assay; type: cell-based, chicken; settings: positive control titration on every plate, mean, n=408
DT40 Rad54/Ku70 cells = assay: DT40 Rad54/Ku70 mutant cell viability assay; type: cell-based, chicken; settings: positive control titration on every plate, mean, n=408
DT40 WT cells = assay: DT40 WT cell viability assay; type: cell-based, chicken; settings: positive control titration on every plate, mean, n=408
[6] = system: antioxidant responsive element; assay: ARE-bla qHTS assay (agonist mode); type: cell-based; settings: Homo sapiens, positive control titration on every plate, mean, n=408
From the text: as §3, §4

Sequence of aryl hydrocarbon receptor (P35869 11-848): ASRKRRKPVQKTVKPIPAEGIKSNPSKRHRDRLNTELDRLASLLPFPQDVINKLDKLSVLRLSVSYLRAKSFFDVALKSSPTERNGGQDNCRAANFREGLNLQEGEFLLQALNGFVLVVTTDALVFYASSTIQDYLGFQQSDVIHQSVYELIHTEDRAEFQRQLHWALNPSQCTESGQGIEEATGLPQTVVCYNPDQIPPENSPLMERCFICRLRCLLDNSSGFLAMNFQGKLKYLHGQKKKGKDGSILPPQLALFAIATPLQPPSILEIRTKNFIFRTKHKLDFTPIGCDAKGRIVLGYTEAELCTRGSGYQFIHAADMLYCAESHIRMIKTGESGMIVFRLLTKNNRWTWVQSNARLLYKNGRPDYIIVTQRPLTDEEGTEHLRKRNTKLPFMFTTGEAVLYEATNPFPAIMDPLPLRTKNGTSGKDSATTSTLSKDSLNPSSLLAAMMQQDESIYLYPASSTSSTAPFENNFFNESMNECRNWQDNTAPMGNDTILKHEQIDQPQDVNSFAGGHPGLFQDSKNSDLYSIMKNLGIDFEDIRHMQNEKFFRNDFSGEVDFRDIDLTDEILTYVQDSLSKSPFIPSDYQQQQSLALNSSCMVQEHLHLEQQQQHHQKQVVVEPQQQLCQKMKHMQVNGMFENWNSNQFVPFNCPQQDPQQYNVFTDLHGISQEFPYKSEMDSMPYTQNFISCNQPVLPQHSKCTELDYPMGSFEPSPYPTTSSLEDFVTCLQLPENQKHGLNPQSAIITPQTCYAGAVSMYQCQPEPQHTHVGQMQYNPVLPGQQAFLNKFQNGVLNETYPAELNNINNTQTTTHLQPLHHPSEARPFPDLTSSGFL

Structure (SMILES): O=c1[nH]c(=O)n([C@@H]2O[C@H](CO)[C@@H](O)[C@H]2O)cc1F [5-Fluorouridine]
AC50 (ATAD5): 2120 nM

Structure (SMILES): C=CCNC1=C2C[C@@H](C)C[C@H](OC)[C@H](O)[C@@H](C)/C=C(\C)[C@H](OC(N)=O)[C@@H](OC)/C=C\C=C(/C)C(=O)NC(=CC1=O)C2=O [17-AAG]
AC50 [1]: 45.3 nM

Structure (SMILES): N#CC(C#N)=NNc1ccc(OC(F)(F)F)cc1 [FCCP]
AC50 (Mitochondria toxicity): 96.2 nM

AC50 [2]: 2.47 nM
Structure (SMILES): O=C(Nc1ccccc1)c1cc([N+](=O)[O-])ccc1Cl [GW9662]

AC50 [3]: 36.4 nM
Structure (SMILES): CCCc1c(OCCCOc2ccc(OCC(=O)O)cc2)ccc(C(C)=O)c1O [L-165,041]

AC50 [4]: 38500 nM
Structure (SMILES): CC(C)c1ccc2c(c1)c(SC(C)(C)C)c(CC(C)(C)C(=O)O)n2Cc1ccc(Cl)cc1 [MK886]

Structure (SMILES): CO[C@@]12[C@H](COC(N)=O)C3=C(C(=O)C(C)=C(N)C3=O)N1C[C@@H]1N[C@@H]12 [Mitomycin C]
AC50 (p53): 1530 nM

AC50 [5]: 49500 nM
Structure (SMILES): COc1ccc2[nH]c([S+]([O-])Cc3ncc(C)c(OC)c3C)nc2c1 (stereo not drawn) [Omeprazole]

Structure (SMILES): CCCCCCCC[N+](CCCCCCCC)(CCCCCCCC)CCCCCCCC [Tetra-octyl ammonium bromide]
AC50 (DT40 Rev3 cells): 440 nM
AC50 (DT40 Rad54/Ku70 cells): 416 nM
AC50 (DT40 WT cells): 594 nM

Structure (SMILES): O=c1cc(-c2ccccc2)oc2ccc3ccccc3c12 [β-Naphthoflavone]
AC50 [6]: 1950 nM

— article PMC4777217, “Modelling the Tox21 10 K chemical profiles for in vivo toxicity prediction and mechanism characterization” (Nature Communications, 2016)
